Assay results: patent US11400078B2, “Methods of treatment for cholestatic and fibrotic diseases” (Genfit, priority 2016, dated 2022)
pIC50: −log10 of the molar value.

Test system: TGFβ1-induced expression of α-SMA protein in human HSC
Experiment: α-SMA ELISA in TGFβ1-activated human primary hepatic stellate cells (single agents and NTZ/statin or TZ/statin combination matrix, EOB/EOHSA)
Format: cell-based
Details: hHSC, TGFβ1 1 ng/mL, 48 h; for pIC50: Homo sapiens, 1 h preincubation, ELISA, read-out: IC50, reduction of α-SMA level in TGFβ-induced HSC; for antifibrotic activity as single agent (α-SMA, dose-response): result in words
Description: After 48 hours of incubation, the expression of α-SMA was measured by ELISA. […] Data are presented as mean (triplicates)±standard deviation (SD). Statistical analyses were performed by one-way ANOVA followed by Bonferroni post-hoc tests, using Sigma Plot 11.0 software. […] After 48 hours of incubation, the expression of α-SMA was measured by ELISA. […] Data are presented as mean (triplicates)±standard deviation (SD). Statistical analyses were performed by one-way ANOVA followed by Bonferroni post-hoc tests, using Sigma Plot 11.0 software. […] Combinations were tested in a dose-response matrix format and analyzed according to the excess over Bliss (EOB) additivism model. Dilution series of NTZ (column) and pitavastatin (row) were prepared, including their respective DMSO controls. […] Data are presented as mean of quadruplicates. (B) EOB scores were calculated as described in Materials and Methods. Any compound pair with positive EOB values was considered synergistic (colored from light grey to black). […] Data are presented as mean (quadruplicates)±standard deviation (SD). Statistical analyses between single agent vs product combination were performed by student t-test or Mann-Whitney Rank Sum Test using Sigma Plot 11.0 software. [*: p<0.05; **: p<0.01; ***: p<0.001]. […] Cell-culture flasks were coated with poly-L lysine (Sigma cat #P4707) for a better adherence. The checkerboard matrix was adopted. NTZ or TZ and statin stocks were serially diluted in DMSO in a 5-points series in a row (statin) and a column (NTZ or TZ) of a 96-well plate. […] Then, 2-fold and 4-fold higher and lower concentrations were selected. […] The human primary hepatic stellate cells (hHSC) (Innoprot) were cultured under standard conditions, as described above. […] Plates were then incubated for 30 min on ice using a plate shaker, before storage at -20° C. The level of α-SMA was measured using a Sandwich ELISA. Briefly, the wells of an ELISA plate were first coated with the capture antibody (mouse monoclonal anti-ACTA2, Abnova) at 4° C. overnight. […] The cell lysates were transferred into the wells for binding to the capture antibody for a period of 2 h at room temperature. After the washing procedure, the detection antibody (biotinylated mouse monoclonal anti-ACTA2, Abnova) was added for 2 hours at room temperature followed by 3 washes. For the detection, an HRP-conjugated streptavidin (R&D Systems cat #DY998) was first applied for 30 min at room temperature. […] Upon oxidation, TMB forms a water-soluble blue reaction product that becomes yellow with addition of sulfuric acid (solution stop), enabling accurate measurement of the intensity at 450 nm using a spectrophotometer. The developed color is directly proportional to the amount of α-SMA present in the lysate. […] Expected Bliss additivism score (E) was firstly determined by the equation: E=(A+B)-(A×B) where A and B are the percentage inhibitions converted into fractions within a range of 0 to 1 of NTZ (A) and a given statin (B) at a given dose. […] For each product combination (NTZ+statin), an additional total Bliss score was calculated by summation of all EOB. […] The significance of the observed differences between NTZ/statin or TZ/statin and single agents were estimated by a student t-test or Mann-Whitney Rank Sum Test using Sigma Plot 11.0 software [*: p<0.05; **: p<0.01; ***: p<0.001].

SMILES | pIC50 | antifibrotic activity as single agent (α-SMA, dose-response)
CC(C)n1c(/C=C/C(O)CC(O)CC(=O)O)c(-c2ccc(F)cc2)c2ccccc21 (stereo not drawn) [fluvastatin] | > 6.00 | –
CC[C@H](C)C(=O)O[C@H]1C[C@H](O)C=C2C=C[C@H](C)[C@H](CC[C@@H](O)C[C@@H](O)CC(=O)O)[C@H]21 [pravastatin] | – | inactive
O=C(O)C[C@H](O)C[C@H](O)/C=C/c1c(C2CC2)nc2ccccc2c1-c1ccc(F)cc1 [pitavastatin] | > 6.00 | –
CC(C)c1nc(N(C)S(C)(=O)=O)nc(-c2ccc(F)cc2)c1/C=C/[C@@H](O)C[C@@H](O)CC(=O)O [rosuvastatin] | – | significant antifibrotic activity but only at the highest doses
CC(C)c1c(C(=O)Nc2ccccc2)c(-c2ccccc2)c(-c2ccc(F)cc2)n1CC[C@@H](O)C[C@@H](O)CC(=O)O [atorvastatin] | 5.52 to 6.00 | –
CC[C@H](C)C(=O)O[C@H]1C[C@@H](C)C=C2C=C[C@H](C)[C@H](CC[C@@H]3C[C@@H](O)CC(=O)O3)[C@H]21 [lovastatin] | 5.52 to 6.00 | –
